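Grown in 96-well plates, cells were treated for 48 hours with each compound at five concentrations. Insufficient inhibition: endpoint recorded as highest concentration tested. TGI is the concentration that stops growth completely.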
Assays:
Assay in all cases: NCI anticancer screen, dose series, 48 h
[1] = test system: RXF 393 renal
[2] = test system: OVCAR-5 ovarian
[3] = test system: NCI-H23 lung
[4] = test system: HOP-62 NSCLC
[5] = test system: HOP-92 NSCLC
[6] = test system: UO-31 renal
[7] = test system: NCI-H522 lung
[8] = test system: XF 498 CNS
[9] = test system: M19-MEL melanoma
[10] = test system: HOP-18 NSCLC
[11] = test system: MALME-3M melanoma
[12] = test system: SK-MEL-5 melanoma
[13] = test system: SK-OV-3 ovarian
[14] = test system: LXFL 529 NSCLC
[15] = test system: LOX IMVI melanoma
[16] = test system: DLD-1 colon
[17] = test system: IGROV1 ovarian
[18] = test system: UACC-62 melanoma
[19] = test system: MOLT-4 leukemia
[20] = test system: SF-268 CNS
[21] = test system: HCT-15 colon
[22] = test system: DMS 273 small cell lung
[23] = test system: TK-10 renal
[24] = test system: HCT-116 colon
[25] = test system: SNB-78 CNS
[26] = test system: M14 melanoma
[27] = test system: K-562 leukemia
[28] = test system: OVCAR-8 ovarian
[29] = test system: SF-295 CNS
[30] = test system: HT29 colon
[31] = test system: KM12 colon
[32] = test system: HCC-2998 colon
[33] = test system: HL-60(TB) leukemia
[34] = test system: A549 NSCLC
[35] = test system: SF-539 CNS
[36] = test system: UACC-257 melanoma
[37] = test system: SNB-75 CNS
[38] = test system: KM20L2 colon
[39] = test system: EKVX NSCLC
[40] = test system: COLO 205 colon
[41] = test system: SK-MEL-2 melanoma
[42] = test system: CAKI-1 renal
[43] = test system: NCI-H226 lung
[44] = test system: NCI-H460 lung
[45] = test system: SN12C renal
[46] = test system: SNB-19 CNS
[47] = test system: 786-0 renal
[48] = test system: SK-MEL-28 melanoma
[49] = test system: OVCAR-3 ovarian
[50] = test system: A498 renal
[51] = test system: SW-620 colon
[52] = test system: RPMI-8226 leukemia
[53] = test system: ACHN renal
[54] = test system: CCRF-CEM leukemia
[55] = test system: OVCAR-4 ovarian
[56] = test system: DMS 114 small cell lung
[57] = test system: U251 CNS

SMILES: COc1cc([C@@H]2c3cc4c(cc3[C@@H](NCc3ccc(C#N)cc3)C3COC(=O)[C@@H]32)OCO4)cc(OC)c1O (some centres not stated)
- TGI [1]: 21.5 µM
- TGI [2]: 8.71 µM
- TGI [3]: 1.43 µM
- TGI [4]: 1.41 µM
- TGI [5]: 49.4 µM
- TGI [6]: 4.34 µM
- TGI [7]: 2.83 µM
- TGI [8]: 2.85 µM
- TGI [9]: 19.5 µM
- TGI [10]: > 100 µM
- TGI [11]: 4.9 µM
- TGI [12]: 8.37 µM
- TGI [13]: 3.9 µM
- TGI [14]: 50.2 µM
- TGI [15]: 4.36 µM
- TGI [16]: 5.33 µM
- TGI [17]: 7.29 µM
- TGI [18]: 2.75 µM
- TGI [19]: 1.38 µM
- TGI [20]: 6.6 µM
- TGI [21]: 3.01 µM
- TGI [22]: 2.49 µM
- TGI [23]: 3.76 µM
- TGI [24]: 11.8 µM
- TGI [25]: 53.2 µM
- TGI [26]: 6.55 µM
- TGI [27]: 15.9 µM
- TGI [28]: 3.01 µM
- TGI [29]: > 100 µM
- TGI [30]: 3.15 µM
- TGI [31]: 3.78 µM
- TGI [32]: 3.69 µM
- TGI [33]: 0.771 µM
- TGI [34]: 1.54 µM
- TGI [35]: 2.36 µM
- TGI [36]: 33.9 µM
- TGI [37]: 3.25 µM
- TGI [38]: 3.99 µM
- TGI [39]: 5.76 µM
- TGI [40]: 6.32 µM
- TGI [41]: 6.54 µM
- TGI [42]: 8.83 µM
- TGI [43]: 2.26 µM
- TGI [44]: 1.77 µM
- TGI [45]: 3.02 µM
- TGI [46]: > 100 µM
- TGI [47]: 2.32 µM
- TGI [48]: 15.2 µM
- TGI [49]: 5.51 µM
- TGI [50]: 3.84 µM
- TGI [51]: 3.44 µM
- TGI [52]: 5.07 µM
- TGI [53]: 1.55 µM
- TGI [54]: 7.01 µM
- TGI [55]: > 100 µM
- TGI [56]: 4.98 µM
- TGI [57]: 1.55 µM
